Results taken from patent US20080274097A1, “BOOSTER FOR THERAPY OF DISEASES WITH ULTRASOUND AND PHARMACEUTICAL LIQUID COMPOSITION CONTAINING THE SAME” (priority 1991, published 2008).

System: artificial thrombosis
Experiment: Fibrinolysis of artificial thrombosis (Chandler's method) with ultrasonic catheter
Set-up: species or system human
Conditions: for time for achieving 20% fibrinolysis: FIG. 4, thrombosis from blood of one person, urokinase 1200 IU/ml
Protocol: An artificial thrombosis was formed by Chandler's method. Blood (1 ml) that was collected from healthy humans (two persons) was entered into a flexible tube (inside diameter 3 mm, length 265 mm) and thereto was added calcium chloride, and then the tube was made a loop like shape, which was rotated at 12 rpm for 20 minutes to give an artificial thrombosis model.
A ceramic ultrasonic element (width 2 mm, length 5 mm, thickness 1 mm) was inserted into the tip of a catheter (diameter 2 mm), and an oscillating element was connected to an oscillator provided outside with a fine connector passed through the catheter. A fine tube for pouring a test solution was provided at an opening opposite to the opening of the catheter end.
The artificial thrombosis prepared above was added to a test tube together with blood, and the ultrasonic catheter was inserted into the test tube so that the end of the catheter was set close to the portion of the artificial thrombosis (at a distance of about 5 mm), and to the test tube a mixture of urokinase and a booster prepared in Example 1 was added at a rate of 1 ml per minute, wherein urokinase (concentration 1200 IU/ml) and the booster were mixed immediately before pouring at a mixing ration of 1:1 by weight. The mixture was refluxed while keeping the volume of the test solution at a constant level by removing excess volume of the solution by suction. The ultrasound (170 KHz) was exposed to the mixture by a pulse method (exposed for 2 seconds and stopped for 4 seconds) for 2 minutes (total exposing time 40 seconds). After the exposure, the ultrasonic catheter was removed from the test tube, and the mixture was incubated at 37 degrees C. for 5 to 120 minutes, washed with a physiological saline solution several times and dried overnight. Thereafter, the dried mixture was weighed. As a control, the above was repeated by using only a physiological saline solution.
The rate of fibrinolysis was calculated by the following equation: […]
The results are shown in the accompanying FIGS. 4 and 5 wherein there are shown in average of twice tests.

Substance: urokinase
- time for achieving 20% fibrinolysis (with exposure of ultrasound (170 KHz, pulse, 2 minutes)): 30 min
- time for achieving 20% fibrinolysis (without exposure of ultrasound): 45 min
- treatment time at which 50% fibrinolysis was achieved (FIG. 5, thrombosis from blood of another person, with exposure of ultrasound, energy reduced by 15%): 60 min
